Legend:
[1] = system: symmetrical dimethylation of arginine (Di-Methyl Histone H4R3) in cell line TE11; experiment: PRMT5 Biomarker Assay; type: cell-based; conditions: Homo sapiens, TE-11; TE11 cells, 72 h incubation, EpiQuik Global Di-Methyl Histone H4R3 ELISA, corrected for total protein
Protocol: (§1) Compounds of the invention may be tested for potency to inhibit symmetrical dimethylation of arginine in the following assay:
The cell line TE11 was seeded at a density of 12,000 cells per well in 96 well tissue culture plates in DME medium and 10% foetal bovine serum, and allowed to adhere overnight under standard culture conditions (37° C., 5% CO2). Compound dilutions prepared in DMSO were added to the medium, with negative control wells reserved for treatment with DMSO only and positive controls receiving a potent PRMT5 inhibitor. The concentration of the inhibitor had been previously determined to give maximum inhibition of the methylation. After incubation for 72 h, cells were washed twice in ice-cold PBS, lysed in lysis buffer (20 mM Tris pH 7.4, 135 mM NaCl, 1.5 mM MgCl2, 1 mM EGTA, 10% glycerol and 1% Triton-X100), centrifuged at 15,000×g and the supernatants collected for subsequent analysis. The methylation level was determined using the EpiQuik™ Global Di-Methyl Histone H4R3 Quantification ELISA Kit (Epigentek, Farmingdale, N.Y.) as per the manufacturer's recommendations; in parallel the total protein amount in the lysate was quantified using a Lowry protein assay. The methylation level was corrected for the total protein amount of each sample, normalised to the controls, and the data fitted against a four-parameter logistic model to determine the 50% inhibitory concentration (IC50).

[2] = target: T1, Full-length PRMT5 enzyme co-expressed with MEP50 (Homo sapiens (Human), UniProt O14744); experiment: PRMT5 Biochemical Assay; conditions: 200 nM histone H4 derived peptide substrate, 1 μM S-Adenosyl methionine, 4 hours at 37° C, Transcreener EPIGEN fluorescence polarisation
Protocol: Compounds of the invention may be tested for in vitro activity in the following assay: A histone H4 derived peptide is used as substrate (amino acid sequence: […]NH2). Full-length PRMT5 enzyme (NCBI Reference sequence NP-006100.2) was co-expressed with Hiss-MEP50 in insect cells and purified via Nickel immobilized metal affinity and gel filtration chromatography (“the enzyme”).
The 6 μL assay reactions are run in Greiner brand black 384-well low volume plates. All reactions contained assay buffer (phosphate buffered saline, 0.01% (v/v) Tween-20, 0.01% (w/v) albumin from chicken egg white, 1 mM dithiothreitol, 200 nM peptide substrate, 1 μM S-Adenosyl methionine, and 15 ng/reaction enzyme, with the enzyme being omitted from negative control reactions. Compounds were added in a volume of 100 nL from dilution series prepared in DMSO, positive and negative control reactions receiving the same volume DMSO without compound. The plates were sealed with adhesive seals and incubated for 4 hours at 37° C. Reaction progress was measured using the Transcreener™ EPIGEN methyltransferase assay (BellBrook Labs, Madison, Wis.) as recommended by the manufacturer. To each reaction 2 μL detection mix were added, containing coupling enzymes, fluorescence polarisation tracer, and AMP antibody. Plates were incubated for 90 min before being read on a PerkinElmer EnVision™ plate reader in fluorescence polarisation mode.

[3] = target: T1, Full-length PRMT5 enzyme co-expressed with MEP50; experiment: Revised PRMT5 Biochemical Assay; conditions: 1 μM histone H4 derived peptide substrate, 1 μM S-Adenosyl methionine, 4 hours at 37 degree Celsius, Transcreener EPIGEN fluorescence polarisation
Procedure, shortened: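 Full-length human PRMT5 co-expressed with His-MEP50 in insect cells (15 ng/reaction), 1 μM H4-derived peptide and 1 μM SAM in PBS/0.01% Tween-20/egg albumin/1 mM DTT, 4 h at 37 °C. SAH formation read by Transcreener EPIGEN fluorescence polarisation after 90 min detection. IC50 from four-parameter fit of plate-normalised % inhibition.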

[4] = system: symmetrical dimethylation of arginine (Di-Methyl Histone H4 Arginine 3) in cell line TE11; experiment: Revised PRMT5 Biomarker Assay; conditions: Homo sapiens, TE-11; TE11 cells, 72 hours incubation, immunofluorescence, corrected for cell number (Hoechst 33342), plate reader based
Protocol: as §1
The cell line TE11 was seeded at a density of 6,000 cells per well in 96 well optical quality tissue culture plates in DME medium and 10% foetal bovine serum, and allowed to adhere for 5 hours under standard culture conditions (37 degree Celsius, 5% CO2). Compound dilutions prepared in DMSO were added to the medium, with negative control wells reserved for treatment with DMSO only and positive controls receiving a potent PRMT5 inhibitor compound at 1 μM concentration. After incubation for 72 hours, the cells were fixed with 3.7% formaldehyde in PBS for 30 minutes at room temperature, washed with phosphate buffer saline and blocked with Odyssey blocking buffer (LI-COR, Lincoln, Nebr.). Rabbit anti-Di-Methyl Histone H4 Arginine 3 specific antibody (Epigentek) in Odyssey blocking buffer was added and incubated for 14 hours at 4 degree Celsius. After washing, anti-rabbit secondary antibody labelled with Alexa647 dye (LifeTechnologies) and Hoechst 33342 (1 μg/mL, SigmaAldrich) were added for 1 hour incubation. Plates were washed and read on a PerkinElmer Envision 2103 in fluorescence intensity scanning mode (24 scans across the well area). The methylation level information was corrected for the number of cells as expressed by the Hoechst 33342 stain, converted to percent inhibition relative to controls on the same plate and the data fitted against a four-parameter logistic model to determine the 50% inhibitory concentration (IC50 plate-reader based). Alternatively, the plates were imaged on a PerkinElmer Phenix high content imaging platform. Using a Columbus image analysis pipeline, individual nuclei were located by Hoechst 33342 stain and the methylation level was calculated from the Alexa647-related intensity in the same area. The resulting mean intensity per cell was directly converted to percent inhibition as outlined above (IC50, imager based)).

T1 sequence (O14744 whole entry): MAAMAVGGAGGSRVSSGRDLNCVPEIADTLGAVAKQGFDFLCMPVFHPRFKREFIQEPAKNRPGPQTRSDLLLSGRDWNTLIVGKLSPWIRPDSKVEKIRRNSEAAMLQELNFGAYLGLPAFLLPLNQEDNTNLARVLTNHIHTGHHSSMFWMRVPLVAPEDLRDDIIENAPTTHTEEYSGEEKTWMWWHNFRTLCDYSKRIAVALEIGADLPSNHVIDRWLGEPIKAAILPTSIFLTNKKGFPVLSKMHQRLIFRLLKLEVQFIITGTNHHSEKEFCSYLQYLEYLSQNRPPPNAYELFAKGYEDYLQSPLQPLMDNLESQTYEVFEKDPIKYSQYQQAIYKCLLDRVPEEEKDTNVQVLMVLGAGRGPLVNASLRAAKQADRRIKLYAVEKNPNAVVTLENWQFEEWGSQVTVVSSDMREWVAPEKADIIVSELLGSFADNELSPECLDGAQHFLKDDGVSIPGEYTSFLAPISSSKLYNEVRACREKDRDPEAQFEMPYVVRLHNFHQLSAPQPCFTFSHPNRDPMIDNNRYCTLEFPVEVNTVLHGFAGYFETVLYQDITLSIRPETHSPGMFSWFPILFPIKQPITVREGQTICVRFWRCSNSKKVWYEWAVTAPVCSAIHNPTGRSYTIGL
T1 sequence (Q9BQA1 whole entry partner): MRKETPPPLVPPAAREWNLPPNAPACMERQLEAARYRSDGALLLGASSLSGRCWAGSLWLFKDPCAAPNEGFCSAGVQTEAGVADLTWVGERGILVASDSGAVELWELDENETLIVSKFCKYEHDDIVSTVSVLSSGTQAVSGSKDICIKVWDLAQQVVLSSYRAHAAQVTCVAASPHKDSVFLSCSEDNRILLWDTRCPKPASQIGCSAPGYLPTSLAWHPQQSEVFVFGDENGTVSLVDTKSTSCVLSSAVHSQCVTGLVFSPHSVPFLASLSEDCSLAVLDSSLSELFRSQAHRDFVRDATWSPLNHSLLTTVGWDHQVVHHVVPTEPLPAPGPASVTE

Row | IC50 [1] | IC50 [2] | IC50 [3] | IC50 [4] | SMILES
1 | 1910 nM | 905 nM |  |  | O=C(NCC(O)CNC1CCc2ccccc2C1)c1ccc(Cl)cc1 (centres unmarked) [Compound 30, 4-Chloro-N-(2-hydroxy-3-((1,2,3,4-tetrahydronaphthalen-2-yl)amino)propyl)benzamide]
2 | 259 nM | 301 nM |  |  | O=C(NC[C@@H](O)CNC1Cc2ccccc2C1)c1ccc(N2CCOCC2)nc1 [Compound 16, (S)-N-(3-((2,3-Dihydro-1H-inden-2-yl)amino)-2-hydroxypropyl)-6-morpholinonicotinamide]
3 | 348 nM | 634 nM |  |  | Cn1cc(Oc2ccc(C(=O)NC[C@H](O)CNC3Cc4ccccc4C3)cc2)cn1 [Compound 13, (R)-N-(3-((2,3-Dihydro-1H-inden-2-yl)amino)-2-hydroxypropyl)-4-((1-methyl-1H-pyrazol-4-yl)oxy)benzamide]
4 | 19 nM | 95 nM | 163 nM |  | C[C@@H]1COCCN1C(=O)c1ccc(C(=O)NC[C@@H](O)CNC2Cc3ccccc3C2)cc1 [Compound 37, N—((S)-3-((2,3-Dihydro-1H-inden-2-yl)amino)-2-hydroxypropyl)-4-((R)-3-methylmorpholine-4-carbonyl)benzamide]
5 |  |  | 196 nM | 0.01 µM | O=C(NC[C@@H](O)CNC1Cc2ccccc2C1)c1ccc(C(=O)N2CC3CCC(C2)O3)cc1 [Compound 105, 4-(8-oxa-3-azabicyclo[3.2.1]octane-3-carbonyl)-N-((S)-3-((2,3-dihydro-1H-inden-2-yl)amino)-2-hydroxypropyl)benzamide]
6 |  |  | 40 nM | 0.012 µM | CCOc1cc(C(=O)N2CCOC[C@H]2C)ccc1C(=O)NC[C@@H](O)CNC1Cc2ccccc2C1 [Compound 123, N-((S)-3-((2,3-dihydro-1H-inden-2-yl)amino)-2-hydroxypropyl)-2-ethoxy-4-((R)-3-methylmorpholine-4-carbonyl)benzamide]
7 | 92 nM | 238 nM |  |  | Cn1cc(Oc2ccc(C(=O)NC[C@@H](O)CNC3Cc4ccccc4C3)cc2)cn1 [Compound 18, (S)-N-(3-((2,3-dihydro-1H-inden-2-yl)amino)-2-hydroxypropyl)-4-((1-methyl-1H-pyrazol-4-yl)oxy)benzamide]
8 |  |  | 157 nM | 0.015 µM | CC[C@H]1COCCN1C(=O)c1ccc(C(=O)NC[C@@H](O)CNC2Cc3ccccc3C2)cc1 [Compound 70, N-((S)-3-((2,3-dihydro-1H-inden-2-yl)amino)-2-hydroxypropyl)-4-((S)-3-ethylmorpholine-4-carbonyl)benzamide]
9 | 363 nM | 425 nM |  |  | O=C(NCC(O)CNC1Cc2ccccc2C1)c1ccc(-c2ccccc2)cc1 (centres unmarked) [Compound 24, N-(3-((2,3-Dihydro-1H-inden-2-yl)amino)-2-hydroxypropyl)-[1,1′-biphenyl]-4-carboxamide]
10 |  |  | 164 nM | 0.662 µM | CC(=O)N1CCC(Nc2cncc(C(=O)NCC(O)CNC3Cc4ccccc4C3)c2)CC1 (centres unmarked) [Compound 53, 5-((1-Acetylpiperidin-4-yl)amino)-N-(3-((2,3-dihydro-1H-inden-2-yl)amino)-2-hydroxypropyl)nicotinamide]
11 |  |  | 209 nM | 0.008 µM | CCOc1cc(C(=O)N2CCCC2)ccc1C(=O)NC[C@@H](O)CNC1Cc2ccccc2C1 [Compound 76, (S)-N-(3-((2,3-dihydro-1H-inden-2-yl)amino)-2-hydroxypropyl)-2-ethoxy-4-(pyrrolidine-1-carbonyl)benzamide]
12 | 336 nM | 263 nM |  |  | Cc1nonc1COc1ccc(C(=O)NC[C@H](O)CNC2Cc3ccccc3C2)cc1 [Compound 8, (R)-N-(3-((2,3-Dihydro-1H-inden-2-yl)amino)-2-hydroxypropyl)-4-((4-methyl-1,2,5-oxadiazol-3-yl)methoxy)benzamide]
13 |  |  | 10400 nM | > 2 µM | CN(C[C@@H](O)CNC1Cc2ccccc2C1)C(=O)c1ccc(C(=O)N2CCOCC2)cc1 [Compound 111, (S)—N-(3-((2,3-Dihydro-1H-inden-2-yl)amino)-2-hydroxypropyl)-N-methyl-4-(morpholine-4-carbonyl)benzamide]
14 |  |  | 98 nM | 0.007 µM | CC(=O)N1CCC(Nc2cc(C(=O)NC[C@@H](O)CNC3Cc4ccccc4C3)ccn2)CC1 [Compound 56, (S)-2-((1-Acetylpiperidin-4-yl)amino)-N-(3-((2,3-dihydro-1H-inden-2-yl)amino)-2-hydroxypropyl)isonicotinamide]
15 | 69 nM | 310 nM |  |  | O=C(NCC(O)CNC1Cc2ccccc2C1)c1ccc(C(=O)N2CCOCC2)cc1 (centres unmarked) [Compound 2, N-(3-((2,3-Dihydro-1H-inden-2-yl)amino)-2-hydroxypropyl)-4-(morpholine-4-carbonyl)benzamide]
16 |  |  | 450 nM | 0.122 µM | CC(=O)N1CCC(Nc2cc(C(=O)NC[C@H](O)CNC3Cc4ccccc4C3)ccn2)CC1 [Compound 55, (R)-2-((1-Acetylpiperidin-4-yl)amino)-N-(3-((2,3-dihydro-1H-inden-2-yl)amino)-2-hydroxypropyl)isonicotinamide]

Row | SMILES | IC50 [1] | IC50 [2] | IC50 [3] | IC50 [4]
17 | O=C(NC[C@@H](O)CNC1Cc2ccccc2C1)c1ccc(C(=O)N2C3CCC2COC3)cc1Cl [Compound 121, 4-(3-oxa-8-azabicyclo[3.2.1]octane-8-carbonyl)-2-chloro-N-((S)-3-((2,3-dihydro-1H-inden-2-yl)amino)-2-hydroxypropyl)benzamide] |  |  | 130 nM | 0.016 µM
18 | O=C(NC[C@@H](O)CNC1Cc2ccccc2C1)c1ccc(Cl)cc1 [Compound 14, (S)-4-Chloro-N-(3-((2,3-dihydro-1H-inden-2-yl)amino)-2-hydroxypropyl)benzamide] | 210 nM | 445 nM |  | 
19 | O=C(NC[C@@H](O)CNC1Cc2ccccc2C1)c1ccc(C(=O)N2C3CCC2COC3)cc1F [Compound 133, 4-(3-oxa-8-azabicyclo[3.2.1]octane-8-carbonyl)-N((S)-3-((2,3-dihydro-1H-inden-2-yl)amino)-2-hydroxypropyl)-2-fluorobenzamide] |  |  | 131 nM | 0.009 µM
20 | CCOc1cc(C(=O)N2C3CCC2COC3)ccc1C(=O)NC[C@@H](O)CNC1Cc2ccccc2C1 [Compound 77, 4-(3-oxa-8-azabicyclo[3.2.1]octane-8-carbonyl)-N-((S)-3-((2,3-dihydro-1H-inden-2-yl)amino)-2-hydroxypropyl)-2-ethoxybenzamide] |  |  | 29 nM | 0.0005 µM
